In brackets after ≈: the same amount, converted by molar mass. Where two headings read alike, the source gives them in different places.
Experiments:
[1] = tested on: M. smegmatis; experiment: MIC assay; format: cell-based; details: Mycolicibacterium smegmatis, read-out: MIC M. smegmatis
[2] = tested on: C. elegans L1 larvae; experiment: developmental assay; format: in vivo; design: key to Developmental score, 1/1600 / Developmental score, 1/800 / Developmental score, 1/400 / Developmental score, 1/200 / Developmental score, 1/100: dead (+++); distressed (++); slightly delayed (+); the same as M9-only untreated wells (−); details: for Developmental score, 1/100: dilution 1/100; for Developmental score, 1/100 / Developmental score, 1/200 / Developmental score, 1/400 / Developmental score, 1/800 / Developmental score, 1/1600: after four days, Ive 1 ng/μL in each well; for Developmental score, 1/200: dilution 1/200; for Developmental score, 1/400: dilution 1/400; for Developmental score, 1/800: dilution 1/800; for Developmental score, 1/1600: dilution 1/1600
[3] = tested on: Staphylococcus aureus ATCC 29213; experiment: microbe, parasite or virus in culture; format: cell-based; details: Staphylococcus aureus, ATCC29213; per-compound listing, Example 6; read-out: MIC S. aureus
[4] = tested on: C. elegans; experiment: motility assay; format: in vivo; design: key to Movement score, 1/1600 / Movement score, 1/800 / Movement score, 1/400 / Movement score, 1/200 / Movement score, 1/100: normal (−); slow (+); very slow (++); not motile/paralyzed (+++); details: for Movement score, 1/100: dilution 1/100 of stock (10.24 μg/μL; SK-03-92 1.024 μg/μL); for Movement score, 1/100 / Movement score, 1/200 / Movement score, 1/400 / Movement score, 1/800 / Movement score, 1/1600: Ive 1 ng/μL in all wells; for Movement score, 1/200: dilution 1/200 of stock (10.24 μg/μL; SK-03-92 1.024 μg/μL); for Movement score, 1/400: dilution 1/400 of stock (10.24 μg/μL; SK-03-92 1.024 μg/μL); for Movement score, 1/800: dilution 1/800 of stock (10.24 μg/μL; SK-03-92 1.024 μg/μL); for Movement score, 1/1600: dilution 1/1600 of stock (10.24 μg/μL; SK-03-92 1.024 μg/μL), overnight 20° C.; for effect on worms at the lowest concentrations tested: at least triplicate
[5] = tested on: Bacillus cereus; experiment: microbe, parasite or virus in culture; format: cell-based; details: for MIC: Bacillus cereus, per-compound listing, Example 6, read-out: MIC B. cereus; for MIC B. cereus, G+ (anthrax surrogate): Table 3
[6] = tested on: Enterococcus faecium VRE 1; experiment: organism not typed; format: cell-based; details: for MIC E. faecium VRE 1, G+: Table 3; for MIC: read-out: MIC VRE
[7] = tested on: Staphylococcus aureus MRSA MC-1; experiment: microbe, parasite or virus in culture; format: cell-based; details: Staphylococcus aureus, MRSA, read-out: MIC MRSA
[8] = tested on: Streptococcus pyogenes; experiment: microbe, parasite or virus in culture; format: cell-based; details: for MIC: Streptococcus pyogenes, per-compound listing, Example 6, read-out: MIC S. pyogenes; for MIC S. pyogenes, G+: Table 3
[9] = per-compound listing, Example 6

Row | Compound | MIC [1, 9] [µg/mL] | Developmental score, 1/100 [2] | Developmental score, 1/200 [2] | Developmental score, 1/400 [2] | Developmental score, 1/800 [2] | Developmental score, 1/1600 [2] | MIC [3] [µg/mL] | Movement score, 1/100 [4] | Movement score, 1/200 [4] | Movement score, 1/400 [4] | Movement score, 1/800 [4] | Movement score, 1/1600 [4] | MIC [5] [µg/mL] | MIC [7] [µg/mL] | other results
1 | COc1cc(O)cc(/C=C/Sc2ccc3ccccc3c2)c1 [SK-05-17] | 128 (≈ 415 µM) | +++ | ++ | ++ | − | − | 4 (≈ 13 µM) | ++ | ++ | ++ | ++ | ++ | 4 (≈ 13 µM) |  | effect on worms at the lowest concentration tested (most active) ([4]; lowest concentration tested): severe distress; effect on worms at the lowest concentrations tested [4]: reduced motility, paralysis, or death
2 | COc1cc(O)cc(/C=C/c2ccc3ccccc3c2)c1 [SK-03-28F2] | 256 (≈ 926 µM) | +++ | +++ | − | − | − | 8 (≈ 29 µM) | +++ | +++ | ++ | ++ | − | 16 (≈ 57.9 µM) |  | effect on worms at the lowest concentrations tested [4]: reduced motility, paralysis, or death
3 | COc1cc(O)cc(/C=C/Oc2ccccc2C)c1 [Compound A11, 2-Methylphenyl-E-(3-hydroxy-5-methoxy)-styryl ether] | > 128 |  |  |  |  |  | 16 (≈ 62.4 µM) |  |  |  |  |  | 32 (≈ 125 µM) | 32 (≈ 125 µM) | MIC E. faecium VRE 1, G+ [6]: 32 µg/mL (≈ 125 µM); MIC [6]: 32 µg/mL (≈ 125 µM); MIC B. cereus, G+ (anthrax surrogate) [5]: 64 µg/mL (≈ 250 µM); MIC [8]: 32 µg/mL (≈ 125 µM); MIC S. pyogenes, G+ [8]: 32 µg/mL (≈ 125 µM)
4 | ivermectin [reference compound] |  | +++ | +++ | +++ | ++ | ++ |  | +++ | +++ | +++ | +++ | +++ |  |  | animals affected ([4]; 0.25 ng/μL, overnight): Over 40%; animals paralyzed ([4]; 0.5 ng/μL): more than 90%; paralysis ([4]; 0.5 ng/μl, FIG. 9): Most worms were paralyzed; paralysis ([4]; 1 ng/μL): All worms were paralyzed; lowest effective concentration ([4]; molar equivalent of 0.25 ng/μL): ~140 nM; lowest effective concentration ([4]; overnight, soaking, mixed population): 0.25 ng/µL
5 | CCC(C)CS/C=C/c1cc(O)cc(OC)c1 (centres unmarked) [SK-05-22] | 128 (≈ 507 µM) | +++ | +++ | +++ | + | − | 16 (≈ 63.4 µM) | +++ | +++ | ++ | + | − | 16 (≈ 63.4 µM) |  | effect at the two highest dilutions [2]: death or delays in development
6 | COc1cc(O)cc(O/C=C/c2ccccc2)c1 [CL-2, Phenyl-E-(3-hydroxy-5methoxy)-styryl ether] | 128 (≈ 528 µM) |  |  |  |  |  | 32 (≈ 132 µM) | +++ | +++ | +++ | − | − | 64 (≈ 264 µM) | 32 (≈ 132 µM) | MIC E. faecium VRE 1, G+ [6]: 32 µg/mL (≈ 132 µM); MIC [6]: 32 µg/mL (≈ 132 µM); MIC B. cereus, G+ (anthrax surrogate) [5]: 64 µg/mL (≈ 264 µM); MIC [8]: 16 µg/mL (≈ 66 µM); MIC S. pyogenes, G+ [8]: 16 µg/mL (≈ 66 µM)
7 | COc1cc(O)cc(/C=C/Sc2cccc3ccccc23)c1 [SK-05-16] | 128 (≈ 415 µM) | ++ | − | − | − | − | 4 (≈ 13 µM) | ++ | ++ | ++ | + | − | 4 (≈ 13 µM) |  | 
8 | COc1cc(O)cc(/C=C/Sc2ccc(C(C)(C)C)cc2)c1 [SK-05-04] | 128 (≈ 407 µM) |  |  |  |  |  | 16 (≈ 50.9 µM) |  |  |  |  |  | 8 (≈ 25.4 µM) |  | 
9 | COc1cc(O)cc(/C=C/Oc2ccccc2)c1 [CL-1, Phenyl-E-(3-hydroxy-5-methoxy)-styryl ether] | 128 (≈ 528 µM) |  |  |  |  |  | 32 (≈ 132 µM) | +++ | +++ | − | − | − | 32 (≈ 132 µM) | 64 (≈ 264 µM) | MIC E. faecium VRE 1, G+ [6]: 64 µg/mL (≈ 264 µM); MIC [6]: 64 µg/mL (≈ 264 µM); MIC B. cereus, G+ (anthrax surrogate) [5]: 16 µg/mL (≈ 66 µM); MIC [8]: 32 µg/mL (≈ 132 µM); MIC S. pyogenes, G+ [8]: 32 µg/mL (≈ 132 µM)
10 | Oc1cc(O)cc(/C=C/c2ccc3ccccc3c2)c1 [SK-03-28F3] | > 512 |  |  |  |  |  | 8 (≈ 30.5 µM) |  |  |  |  |  | 8 (≈ 30.5 µM) | 256 (≈ 976 µM) | 
11 | CCOC(=O)/C=C\Sc1nc2ccccc2s1 [SK-04-59F1] |  |  |  |  |  |  |  | − | − | − | − | − |  |  | 
12 | Oc1cc(O)cc(/C=C/c2csc3ccccc23)c1 [SK-03-44F2] |  |  |  |  |  |  | 32 (≈ 119 µM) |  |  |  |  |  | 256 (≈ 954 µM) | > 512 | MIC [1]: > 512 µg/mL
13 | COc1cc(O)cc(/C=C/SC2CCCCC2)c1 [SK-04-50] |  | +++ | + | − | − | − |  | ++ | + | + | + | + |  |  | 
14 | COc1cc(O)cc(/C=C/Sc2ccccc2C(C)C)c1 [SK-05-01] | 256 (≈ 852 µM) |  |  |  |  |  | 16 (≈ 53.3 µM) | + | − | − | − | − | 16 (≈ 53.3 µM) |  | 

From patent publication US8530512B2, “Broad spectrum gram-positive antimicrobials and anthelmintics with efficacy against drug-resistant strains and Mycobacterium species” (priority 2004, dated 2013)
